These results are taken from US5714363A, “Deacetoxycephalosporin C hydroxylase” (priority 1992, dated 1998).

Counter-ions that a name gives are not always drawn.

The target in experiment [1] is T1, DAOC hydroxylase (Streptomyces clavuligerus, UniProt P42220).
T1 sequence (P42220 1-318): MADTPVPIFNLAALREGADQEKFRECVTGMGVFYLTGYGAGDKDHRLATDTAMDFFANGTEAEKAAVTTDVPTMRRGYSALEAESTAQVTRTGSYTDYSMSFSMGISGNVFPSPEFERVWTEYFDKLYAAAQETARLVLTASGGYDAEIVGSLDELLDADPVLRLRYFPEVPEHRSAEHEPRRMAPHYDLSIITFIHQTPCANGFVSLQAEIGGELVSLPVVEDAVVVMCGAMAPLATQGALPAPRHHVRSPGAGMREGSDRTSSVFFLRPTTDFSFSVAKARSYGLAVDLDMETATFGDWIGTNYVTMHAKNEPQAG
Briefly: DAOC hydroxylase activity assay (DAC formation from DAOC, HPLC at 260 nm). The experiment is classed as biochemical. Details: The highly purified native enzyme (92% purity) has a molecular weight of 35,000 dalton; endogenous in cells; host or cells: Streptomyces clavuligerus cells (native producer; NRRL 18491 is named as preferred strain), enzyme purified from cell-free extract. The settings on record: for drop of maximum catalytic activity when not present: external ferrous ion, DTT and ascorbate both absent; for stimulation of catalytic activity: with Fe2+, α-ketoglutarate and O2; for replacement of ferrous ion for enzymatic activity: ion in place of Fe2+; for Relative Activity (%): no additive = 100; for reduction in enzyme activity: substitution of MOPS buffer at optimal pH. The method, then:
(§1) The activity of the DAOC hydroxylase is determined throughout the process by the following assay method. The hydroxylase activity was determined by monitoring DAC formation from DAOC at 260 nm with HPLC as described by Dotzlaf, J. E., and Yeh, W.-K. (1987) J. Bacteriol., 169, 1611-1618. […] The enzymatic reaction is initiated by adding the DAOC and the reaction is conducted for 20 minutes at 29° C. DAC formation is linear with reaction time for up to 40 minutes. One unit of enzyme activity is defined as the amount of hydroxylase required to cause formation of one μmol of DAC per minute from DAOC under the above-described assay conditions.
The specific activity of the hydroxylase is defined as units per milligram of protein.

The target of experiment [2] is T1, DAOC hydroxylase. Briefly: Substrate specificity of purified DAOC hydroxylase. The experiment is classed as biochemical. Details: The highly purified native enzyme (92% purity) has a molecular weight of 35,000 dalton; endogenous in cells; host or cells: Streptomyces clavuligerus cells (native producer; NRRL 18491 is named as preferred strain), enzyme purified from cell-free extract. The settings on record: for Sp. Activity (mU/mg) / Relative Activity (%): compound as substrate; for Relative Activity (%): relative to DAOC = 100; for effectiveness as substrate: conditions for optimal catalysis; for Vmax (Percent Catalytic Activities, relative Vmax): relative to DAOC to DAC = 100, substrate of the reaction. The method, then:
Several compounds were evaluated as substrates for the purified enzyme to determine its substrate specificity. The compounds evaluated and the results are shown below in TABLE 4. The results were obtained by EPLC analysis.
as §1

Take `O[C@H](CS)[C@H](O)CS` (racemic) [DTT, dithiothreitol]: on DAOC hydroxylase [1], the “drop of maximum catalytic activity when not present” value is reported as around 80% and the “stimulation of catalytic activity” value is listed as “stimulated”.
`Nc1ncnc2c1ncn2[C@@H]1O[C@H](COP(=O)(O)OP(=O)(O)OP(=O)(O)O)[C@@H](O)[C@H]1O` [ATP]: the “stimulation of catalytic activity” value at DAOC hydroxylase [1] is “not”.
`[Ca+2]` [Ca^2+]: the “replacement of ferrous ion for enzymatic activity” value (“replacement of ferrous ion” below) on DAOC hydroxylase [1] was “not replaceable”.
In the case of `CC1=C(C(=O)O)N2C(=O)[C@@H](NC(=O)CCC[C@@H](N)C(=O)O)[C@H]2CC1` [Carba-DAOC, 1carba(1-dethia)deacetoxycephalosporin C], at DAOC hydroxylase [2], the “Sp. Activity (mU/mg)” value worked out at 3.0 mU/mg, the “Relative Activity (%)” value came out at 1.9% and the effectiveness as substrate entry is given as “did not serve as effective substrates”.
As to `[Co+2]` [Co^2+], on DAOC hydroxylase [1], the “replacement of ferrous ion” value is “not replaceable”.
In the case of `[Cu+2]` [Cu^2+], the “replacement of ferrous ion” value on DAOC hydroxylase [1] was “not replaceable”.
As for `O=C(O)c1cc(SSc2ccc([N+](=O)[O-])c(C(=O)O)c2)ccc1[N+](=O)[O-]` [DTNB, 5,5'-dithiobis2-nitrobenzoic acid], the “Relative Activity (%)” value at DAOC hydroxylase [1] (additive 1 mM) came to 0%.
On to `O=C(O)CN(CCN(CC(=O)O)CC(=O)O)CC(=O)O` [EDTA, ethylenediamine tetraacetic acid], for which the “Relative Activity (%)” value on DAOC hydroxylase [1] (additive 0.05 mM) is given as 16%; on DAOC hydroxylase [1] (additive 0.5 mM), 0%.
With `C=C1CS[C@@H]2[C@H](NC(=O)CCC[C@@H](N)C(=O)O)C(=O)N2C1C(=O)O` (stereo partly drawn) [EMCC, 7β-(D-α-aminoadipamido)-3-exomethylenecepham-4-carboxylic acid], at DAOC hydroxylase [2], the “Sp. Activity (mU/mg)” value is on record as 58.1 mU/mg; the “Relative Activity (%)” value is on record as 36.5%; the effectiveness as substrate result is “fairly efficient”; the “Vmax (Percent Catalytic Activities, relative Vmax)” value came out at 37%.
In the case of `O=S(=O)(O)CCN1CCN(CCO)CC1` [HEPES buffer], at DAOC hydroxylase [1], the “reduction in enzyme activity” value was found to be 7%.
Turning to `O=C(O)CI` [Iodoacetic acid], the “Relative Activity (%)” value on DAOC hydroxylase [1] (additive 1 mM) was found to be 59%.
With `CC1=C(C(=O)O)N2C(=O)[C@@H](NC(=O)CCC[C@H](N)C(=O)O)[C@H]2SC1` [Iso-DAOC, 7β-(Lα-aminoadipamido)-3-methyl-3-cephem-4-carboxylic acid], on DAOC hydroxylase [2], the “Sp. Activity (mU/mg)” value worked out at 1.3 mU/mg, the “Relative Activity (%)” value came to 0.8% and the effectiveness as substrate result is “did not serve as effective substrates”.
For the compound `[Mg+2]` [Mg^2+], the “replacement of ferrous ion” value at DAOC hydroxylase [1] is on record as “not replaceable”.
`[Mn+2]` [Mn^2+]: at DAOC hydroxylase [1], the “replacement of ferrous ion” value is on record as “not replaceable”.
For the compound `CCN1C(=O)C=CC1=O` [NEM, Nethylmaleimide], the “Relative Activity (%)” value on DAOC hydroxylase [1] (additive 1 mM) is 24%.
Regarding `[Ni+2]` [Ni^2+], the “replacement of ferrous ion” value on DAOC hydroxylase [1] is “not replaceable”.
For `CC1(C)S[C@@H]2[C@H](NC(=O)CCC[C@@H](N)C(=O)O)C(=O)N2[C@H]1C(=O)O` [Penicillin N, penicillin N], on DAOC hydroxylase [2], the effectiveness as substrate entry is reported as “weak catalytic activity” and the “Vmax (Percent Catalytic Activities, relative Vmax)” value is 1.4%.
In the case of `N[C@@H](CCC(=O)N[C@@H](CS)C(=O)NCC(=O)O)C(=O)O` [Reduced glutathione], at DAOC hydroxylase [1], the “stimulation of catalytic activity” value is “as effective”.
`NC(CO)(CO)CO` [Tris-HCl buffer]: the “reduction in enzyme activity” value at DAOC hydroxylase [1] stood at 27%.
Regarding `[Zn+2]` [Zn^2+], the “replacement of ferrous ion” value at DAOC hydroxylase [1] is “not replaceable”.
Consider `O=C1O[C@H]([C@@H](O)CO)C(O)=C1O` [ascorbate], for which the “drop of maximum catalytic activity when not present” value on DAOC hydroxylase [1] is listed as around 80%.
In the case of `[Fe+3]` [ferric ion], the “replacement of ferrous ion” value on DAOC hydroxylase [1] was “can replace ferrous ion with retention of maximum activity”.
`c1cnc2c(c1)ccc1cccnc12` [o-Phenanthroline]: the entries for the “Relative Activity (%)” value at DAOC hydroxylase [1] (additive 0.05 mM) and at DAOC hydroxylase [1] (additive 0.5 mM) were 81% and 0%, respectively.
With `[K+]` [potassium], at DAOC hydroxylase [1], the “replacement of ferrous ion” value is recorded as “not replaceable”.
Take `[Na+]` [sodium]: the “replacement of ferrous ion” value at DAOC hydroxylase [1] is “not replaceable”.
As for `OCCS` [β-Mercaptoethanol], the “stimulation of catalytic activity” value at DAOC hydroxylase [1] is “little stimulating effect”.
